Source: patent US20210005278A1, “SYSTEMS AND METHODS FOR PREDICTIVE NETWORK MODELING FOR COMPUTATIONAL SYSTEMS, BIOLOGY AND DRUG TARGET DISCOVERY” (ARIZONA BOARD OF REGENTS ON BEHALF OF THE UNIVERSITY OF …, priority 2018, published 2021)
Entries after “also recorded” stand apart in the source; their conditions may differ.

Assays:
[1] = tested on: human adipocytes (differentiated SGBS cells); experiment: Insulin mediated glucose uptake assay in mature human adipocytes (differentiated SGBS); assay type: cell-based; conditions: 24 hours pretreatment 10 nM-10 uM, 100 nM insulin stimulation
Experimental: For adipogenic differentiation SGBS cells were grown to confluence and subjected to a two-step differentiation process. […] Afterwards, cells were exposed to DMEM/F12 supplemented with 0.01 mg/mL of transferrin, […] of insulin, 100 nM cortisol, and 0.2 nM 3,3′,5-Triiodo-L-thyronine for additional 12 days. HMCL-7304 cells were differentiated in presence of SKMC differentiation medium (PromoCell) for 4-5 days before glucose uptake was performed. […] After the preincubation, the cells were starved for 2 hours prior to 30 minutes of 100 nM insulin stimulation at 37 degrees. […] The cells were then washed with PBS, harvested in 300 uL of M-PER lysis buffer (ThermoFisher), and then added to scintillation vials containing 4.75 mL of scintillation fluid (Perk Elmer). Radioactive counts were determined with a scintillation counter (Model ID: Beckman LS6500). Excess samples were subjected to BCA assay for protein quantification and normalization of radioactive counts. All samples were represented as fold change compared to the unstimulated (no insulin) condition.

human SGBS preadipocytes = experiment: Growth assay in human SGBS preadipocytes (crystal violet); assay type: cell-based; conditions: 12 to 14 days, 10 nM-10 uM
Experimental: (§1) After the treatment, the cells were fixed in cold methanol for 15 minutes and stained with crystal violet for 10 minutes. Dye excess was washed with water and pictures taken immediately afterwards.

human SKMCs (HMCL-7304) = experiment: Growth assay in human SKMCs (crystal violet); assay type: cell-based; conditions: 12 to 14 days, 10 nM-10 uM
Experimental: as §1

SGBS cells = experiment: Adipogenic differentiation assay (Oil Red O) in SGBS cells; assay type: cell-based, human; conditions: inhibitor added at day 0 of differentiation, 10 nM-10 uM
Experimental: For adipogenic differentiation SGBS cells were grown to confluence and subjected to a two-step differentiation process. […] Afterwards, cells were exposed to DMEM/F12 supplemented with 0.01 mg/mL of transferrin, […] of insulin, 100 nM cortisol, and 0.2 nM 3,3′,5-Triiodo-L-thyronine for additional 12 days. HMCL-7304 cells were differentiated in presence of SKMC differentiation medium (PromoCell) for 4-5 days before glucose uptake was performed. […] Differentiation quantification was performed with Oil Red 0. Differentiated SGBS cells were fixed with 10% formalin for 10 minutes at room temperature. After washing with 60% isopropanol, samples were incubated in Oil Red 0 (Sigma-Aldrich) for 10 minutes at room temperature. Oil Red 0 was eluted with 100% isopropanol for 10 minutes. The solution was then transferred into a 96-well plate and absorbance measured at 500nm.

iPSC lines = experiment: HMGCR inhibition in iPSC lines, RNA-seq differential expression; assay type: cell-based, human; conditions: 1 uM, 12 h
Experimental: Previous efforts have validated predictive networks through similar approaches.
For the expression residuals used for the co-expression and predictive network analyses, 2 analysis streams were adopted: one where there was use of all samples without adjusting for patient ID (AS) and one where there was an averaging of residuals per patient (ApP). Differentially expressed genes were determined using a linear model, as implemented in the 1mFit function from the limma package v3.18.13 in R. Statistical significance was assessed using a cut-off of 0.05 on FDR adjusted p-values.
iPSCs from 6 IS and 6 IR individuals were maintained in feeder-free conditions using mTesr1 (Stem Cell technologies, Inc) supplemented with 1 mM L-Glutamine, 1 mM Penicillin-Streptomycin, 0.1 μ/ml Fungizone.) on 5% matrigel coated 6-well TC plates. For passaging, cells were washed once with PBS and treated with pre-warmed 1 mM EDTA (Sigma), incubated at 37 degrees for 1-5 minutes, and resuspended in fresh mTesr1 medium 2 μM Thiazovivin (Millipore). After 12 hours incubation in Thiazovivin, medium was changed daily with fresh mTesr1. […] Cells were washed once in PBS and harvested for RNA extraction using PureLInk RNA mini kit (Thermo Fisher Scientific). Total RNA was quantified using a Nanodrop (Thermo Scientific). RNA samples with a A260/280 ratio <1.8 or >2.3 were excluded from further processing and the RNA was sequenced using the Illumina HiSeq 2500 system.

Row | Structure (SMILES) | insulin mediated glucose uptake [1] | preadipocyte growth (human SGBS preadipocytes) | cell proliferation in SKMCs (human SKMCs (HMCL-7304)) | differentiation efficiency (adipogenesis, Oil Red O absorbance at 500 nm) (SGBS cells) | number of DE genes, treated vs untreated samples (iPSC lines; IR iPSC group only) | number of DE genes, treated vs untreated samples (iPSC lines; IS iPSC group only) | number of DE genes, treated vs untreated samples (iPSC lines; all iPSC lines (6 IR, 6 IS))
1 | CN(C/C=C/C#CC(C)(C)C)Cc1cccc2ccccc12 [terbinafine] | decrease insulin mediated glucose uptake | only HMGCR inhibition demonstrates a detectable decrease | only a significant effect on glucose uptake | only HMGCR inhibition demonstrates a detectable decrease |  |  | 
2 | CC(C)c1c(C(=O)Nc2ccccc2)c(-c2ccccc2)c(-c2ccc(F)cc2)n1CC[C@@H](O)C[C@@H](O)CC(=O)O [atorvastatin] |  | detectable decrease | inhibits; also recorded: affected |  | 785 | 711 | 3205
3 | NCCCC(O)(P(=O)(O)O)P(=O)(O)O [alendronate] |  | only HMGCR inhibition demonstrates a detectable decrease | only a significant effect on glucose uptake |  |  |  | 
